Assay results from patent US12708640B2, “Synergistic nutritional compositions for treating vestibular associated neurodegenerative diseases” (CELAGENEX RESEARCH (INDIA) PVT. LTD., priority 2021, dated 2026).

Columns and labels:
Format in all cases: in vivo, Albino Wistar rat
[1] = tested on: sodium arsanilate induced vestibular dysfunction (Vertigo disorder) in wistar rats; assay: Contact righting reflex; settings: for Contact righting reflex (time), Average: group average of 6 animals
From the text: (§1) “Evaluation of test substance on sodium arsanilate induced vestibular dysfunction (Vertigo disorder) in wistar rats”.
(§2) Vestibular dysfunction was induced in rats by intratympanic injection of sodium arsanilate an ototoxic compound. Sodium arsanilate is an arsenic derivative and intratympanic injection result was vestibular nerve degeneration in brain stem with concomitant loss of labyrinthine righting and reduced postural support with exaggerated head dorsiflexion.
(§3) All the animals were acclimatized for at least 5 days under controlled environmental condition. Total 42 animals were divided into seven groups consisting of 6 animals per group. Normal control (G1) group receiving vehicle, disease control (G2) group receiving sodium arsanilate injection only, standard group (G3) receiving reference standard (vertin) and treatment groups G4, G5, G6 & G7 were treated with the test substances. All the groups (except normal control group) were induced with sodium arsanilate via intratymphanic injection. All the treatment groups were administered daily for 7 consecutive days.
The rats were placed in a syringe core tube in a supine position, following which the recovery time for position correction to be recorded. Normal rats turned over their body position in a few seconds.

[2] = tested on: sodium arsanilate induced vestibular dysfunction (Vertigo disorder) in wistar rats; assay: Open field test; settings: for Ambulation Score [the number of open-field sections entered by the rat], Average / Defecation [the number of fecal boli deposited in the open-field], Average / Grooming [the number of grooming bouts exhibited by the rat], Average / Rearing Responses [the number of times the animal raised both forefeet off the floor and extended its body], Average: group average of 6 animals; for % Improvement in Ambulation score wrt. G2 / % Improvement in Defecation wrt. G2 / % Improvement in Grooming wrt. G2 / % Improvement in Rearing Responses wrt. G2: open field test, wrt. disease control G2
From the text: as §1, §2, §3
The open-field was circular, with a diameter of 90 cm, and enclosed by a wall 30 cm high. The floor and wall of the open-field was black and the floor was divided into 25 equal area sections by thin white lines. The floor was covered with a transparent plastic coating. The open-field apparatus was located inside a large wooden frame which surrounded on all sides by black curtains. The field was illuminated by two 60-W fluorescent lights located 100 cm above the floor.
At the start of each session the rats were placed in one of the peripheral sections of the open-field and the animal's behavior was monitored by an observer for 10 consecutive minutes. […] At the end of each session the rat was returned to its home cage and the floor of the open-field was cleaned and sponged over with a weak vinegar solution to remove any residual odors.

[3] = Rat body weight in the sodium arsanilate vestibular dysfunction study; settings: rats, group value; for Body Weight, End of the treatment: after 7 days daily treatment
From the text: as §1
(§4) • Test Species: Rat • Strain: Albino Wistar • Sex: Male/Female • Age: 6-8 Weeks • Body Weight: 180-200 g • Source: In house breed • Total No. of Animals: 42 Animals (7 groups of 6 animals each) • Feed: Normal chow diet (Purina lab diet 5L79 Rat and Mouse 18%) (PMI Nutrition International) Environmental Conditions:
as §3
Individual body weights were recorded at receipt, on the day of randomization, on the first day of treatment before dosing and weekly once thereafter throughout the treatment period. The body weight changes for all the animals were calculated and reported along with the body weight data.

[4] = Rat feed consumption in the sodium arsanilate vestibular dysfunction study; settings: rats, group value
From the text: as §1, §4, §3
The feed consumption was calculated and reported on a daily basis throughout the study period.

[5] = tested on: sodium arsanilate induced vestibular dysfunction (Vertigo disorder) in wistar rats; assay: Air righting reflex (air reflecting index); settings: for Air Righting Reflex (% of Rats that successfully righted themselves within 5 s), Average: group average of 6 animals
From the text: as §1, §2, §3
A sponge was spread on a flat surface and the animals were placed in a supine position in the air 50 cm away above the sponge, following which the animal was dropped horizontally.
Four-legged smooth landing on the ground was considered as positive (normal animal), whereas the body or other regions landing first was considered vestibular dysfunction animals. The positive landing rate (%) of each rat in each group was recorded.

[6] = animal 1, recovery time for position correction
[7] = animal 2, recovery time for position correction
[8] = animal 3, recovery time for position correction
[9] = animal 4, recovery time for position correction
[10] = animal 5, recovery time for position correction
[11] = animal 6, recovery time for position correction
[12] = animal 1, end of 7-day treatment
[13] = animal 2, end of 7-day treatment
[14] = animal 3, end of 7-day treatment
[15] = animal 4, end of 7-day treatment
[16] = animal 5, end of 7-day treatment
[17] = animal 6, end of 7-day treatment

With `CC(=O)NC(CC(C)C)C(=O)O` (racemic) [Group 4, N-Acetyl-DL-leucine enantiomerically enriched (EE) with L-leucine] the “Contact righting reflex (time)” value [1, 6] was 27 s, the “Contact righting reflex (time)” value [1, 7] was 26 s and the “Contact righting reflex (time)” value [1, 8] was 25 s. For the same compound, the “Contact righting reflex (time)” value [1, 9] was 28 s, the “Contact righting reflex (time)” value [1, 10] was 27 s and the “Contact righting reflex (time)” value [1, 11] was 28 s. For the same compound, the “Contact righting reflex (time), Average” value [1] was 26.83 s, the “contact righting reflex, improvement (wrt. the Disease Control)” value [1] was “up to 34%” and the “Ambulation Score [the number of open-field sections entered by the rat]” value ([2]; animal 1) was 210. The “Defecation [the number of fecal boli deposited in the open-field]” value ([2]; animal 1) was 2, the “Grooming [the number of grooming bouts exhibited by the rat]” value ([2]; animal 1) was 3 and the “Rearing Responses [the number of times the animal raised both forefeet off the floor and extended its body]” value ([2]; animal 1) was 4. The “Ambulation Score [the number of open-field sections entered by the rat]” value ([2]; animal 2) was 200, the “Defecation [the number of fecal boli deposited in the open-field]” value ([2]; animal 2) was 3 and the “Grooming [the number of grooming bouts exhibited by the rat]” value ([2]; animal 2) was 4. For the same compound, the “Rearing Responses [the number of times the animal raised both forefeet off the floor and extended its body]” value ([2]; animal 2) was 3, the “Ambulation Score [the number of open-field sections entered by the rat]” value ([2]; animal 3) was 220 and the “Defecation [the number of fecal boli deposited in the open-field]” value ([2]; animal 3) was 4. For the same compound, the “Grooming [the number of grooming bouts exhibited by the rat]” value ([2]; animal 3) was 3, the “Rearing Responses [the number of times the animal raised both forefeet off the floor and extended its body]” value ([2]; animal 3) was 5 and the “Ambulation Score [the number of open-field sections entered by the rat]” value ([2]; animal 4) was 220. The “Defecation [the number of fecal boli deposited in the open-field]” value ([2]; animal 4) was 2, the “Grooming [the number of grooming bouts exhibited by the rat]” value ([2]; animal 4) was 3 and the “Rearing Responses [the number of times the animal raised both forefeet off the floor and extended its body]” value ([2]; animal 4) was 4. For the same compound, the “Ambulation Score [the number of open-field sections entered by the rat]” value ([2]; animal 5) was 210, the “Defecation [the number of fecal boli deposited in the open-field]” value ([2]; animal 5) was 3 and the “Grooming [the number of grooming bouts exhibited by the rat]” value ([2]; animal 5) was 4. The “Rearing Responses [the number of times the animal raised both forefeet off the floor and extended its body]” value ([2]; animal 5) was 6, the “Ambulation Score [the number of open-field sections entered by the rat]” value ([2]; animal 6) was 220 and the “Defecation [the number of fecal boli deposited in the open-field]” value ([2]; animal 6) was 4. The “Grooming [the number of grooming bouts exhibited by the rat]” value ([2]; animal 6) was 2, the “Rearing Responses [the number of times the animal raised both forefeet off the floor and extended its body]” value ([2]; animal 6) was 4 and the “Ambulation Score [the number of open-field sections entered by the rat], Average” value [2] was 213.33. The “Defecation [the number of fecal boli deposited in the open-field], Average” value [2] was 3.00, the “Grooming [the number of grooming bouts exhibited by the rat], Average” value [2] was 3.17 and the “Rearing Responses [the number of times the animal raised both forefeet off the floor and extended its body], Average” value [2] was 4.33. The “% Improvement in Ambulation score wrt. G2” value [2] was 15.23%, the “% Improvement in Defecation wrt. G2” value [2] was 30.77% and the “% Improvement in Grooming wrt. G2” value [2] was 59.57%. For the same compound, the “% Improvement in Rearing Responses wrt. G2” value [2] was 40.62%, the “Body Weight, End of the treatment” value [3] was 190.77 gm and the “Body Weight, Initial” value [3] was 189.15 gm. The “Feed Consumption, 0 day” value [4] was 16.00 gm, the “Feed Consumption, 7th day” value [4] was 16.67 gm and the “Air Righting Reflex (% successfully righted within 5 s)” value ([5]; animal 1) was 40%. The “Air Righting Reflex, Successful out of 5” value [5, 12] was 2, the “Air Righting Reflex (% successfully righted within 5 s)” value ([5]; animal 2) was 60% and the “Air Righting Reflex, Successful out of 5” value [5, 13] was 3. The “Air Righting Reflex (% successfully righted within 5 s)” value ([5]; animal 3) was 40%, the “Air Righting Reflex, Successful out of 5” value [5, 14] was 2 and the “Air Righting Reflex (% successfully righted within 5 s)” value ([5]; animal 4) was 40%. For the same compound, the “Air Righting Reflex, Successful out of 5” value [5, 15] was 2, the “Air Righting Reflex (% successfully righted within 5 s)” value ([5]; animal 5) was 60% and the “Air Righting Reflex, Successful out of 5” value [5, 16] was 3. For the same compound, the “Air Righting Reflex (% successfully righted within 5 s)” value ([5]; animal 6) was 40%, the “Air Righting Reflex, Successful out of 5” value [5, 17] was 2 and the “Air Righting Reflex (% of Rats that successfully righted themselves within 5 s), Average” value [5] was 46.67%.

For `CNCCc1ccccn1` [Group 3, reference compound], the “Contact righting reflex (time)” value [1, 6] was 21 s, the “Contact righting reflex (time)” value [1, 7] was 26 s and the “Contact righting reflex (time)” value [1, 8] was 28 s. For the same compound, the “Contact righting reflex (time)” value [1, 9] was 23 s, the “Contact righting reflex (time)” value [1, 10] was 27 s and the “Contact righting reflex (time)” value [1, 11] was 26 s. The “Contact righting reflex (time), Average” value [1] was 25.17 s, the “contact righting reflex, improvement (wrt. the Disease Control)” value [1] was “around 38%” and the “Ambulation Score [the number of open-field sections entered by the rat]” value ([2]; animal 1) was 200. For the same compound, the “Defecation [the number of fecal boli deposited in the open-field]” value ([2]; animal 1) was 3, the “Grooming [the number of grooming bouts exhibited by the rat]” value ([2]; animal 1) was 4 and the “Rearing Responses [the number of times the animal raised both forefeet off the floor and extended its body]” value ([2]; animal 1) was 5. The “Ambulation Score [the number of open-field sections entered by the rat]” value ([2]; animal 2) was 210, the “Defecation [the number of fecal boli deposited in the open-field]” value ([2]; animal 2) was 4 and the “Grooming [the number of grooming bouts exhibited by the rat]” value ([2]; animal 2) was 3. For the same compound, the “Rearing Responses [the number of times the animal raised both forefeet off the floor and extended its body]” value ([2]; animal 2) was 4, the “Ambulation Score [the number of open-field sections entered by the rat]” value ([2]; animal 3) was 215 and the “Defecation [the number of fecal boli deposited in the open-field]” value ([2]; animal 3) was 2. The “Grooming [the number of grooming bouts exhibited by the rat]” value ([2]; animal 3) was 3, the “Rearing Responses [the number of times the animal raised both forefeet off the floor and extended its body]” value ([2]; animal 3) was 6 and the “Ambulation Score [the number of open-field sections entered by the rat]” value ([2]; animal 4) was 230. For the same compound, the “Defecation [the number of fecal boli deposited in the open-field]” value ([2]; animal 4) was 3, the “Grooming [the number of grooming bouts exhibited by the rat]” value ([2]; animal 4) was 5 and the “Rearing Responses [the number of times the animal raised both forefeet off the floor and extended its body]” value ([2]; animal 4) was 4. For the same compound, the “Ambulation Score [the number of open-field sections entered by the rat]” value ([2]; animal 5) was 220, the “Defecation [the number of fecal boli deposited in the open-field]” value ([2]; animal 5) was 4 and the “Grooming [the number of grooming bouts exhibited by the rat]” value ([2]; animal 5) was 6. The “Rearing Responses [the number of times the animal raised both forefeet off the floor and extended its body]” value ([2]; animal 5) was 5, the “Ambulation Score [the number of open-field sections entered by the rat]” value ([2]; animal 6) was 225 and the “Defecation [the number of fecal boli deposited in the open-field]” value ([2]; animal 6) was 3. The “Grooming [the number of grooming bouts exhibited by the rat]” value ([2]; animal 6) was 5, the “Rearing Responses [the number of times the animal raised both forefeet off the floor and extended its body]” value ([2]; animal 6) was 4 and the “Ambulation Score [the number of open-field sections entered by the rat], Average” value [2] was 216.67. The “Defecation [the number of fecal boli deposited in the open-field], Average” value [2] was 3.17, the “Grooming [the number of grooming bouts exhibited by the rat], Average” value [2] was 4.33 and the “Rearing Responses [the number of times the animal raised both forefeet off the floor and extended its body], Average” value [2] was 4.67. For the same compound, the “% Improvement in Ambulation score wrt. G2” value [2] was 13.91%, the “% Improvement in Defecation wrt. G2” value [2] was 26.92% and the “% Improvement in Grooming wrt. G2” value [2] was 44.68%. For the same compound, the “% Improvement in Rearing Responses wrt. G2” value [2] was 43.75%, the “Body Weight, End of the treatment” value [3] was 188.10 gm and the “Body Weight, Initial” value [3] was 186.83 gm. The “Feed Consumption, 0 day” value [4] was 15.33 gm, the “Feed Consumption, 7th day” value [4] was 16.00 gm and the “Air Righting Reflex (% successfully righted within 5 s)” value ([5]; animal 1) was 40%. The “Air Righting Reflex, Successful out of 5” value [5, 12] was 2, the “Air Righting Reflex (% successfully righted within 5 s)” value ([5]; animal 2) was 60% and the “Air Righting Reflex, Successful out of 5” value [5, 13] was 3. The “Air Righting Reflex (% successfully righted within 5 s)” value ([5]; animal 3) was 40%, the “Air Righting Reflex, Successful out of 5” value [5, 14] was 2 and the “Air Righting Reflex (% successfully righted within 5 s)” value ([5]; animal 4) was 60%. For the same compound, the “Air Righting Reflex, Successful out of 5” value [5, 15] was 3, the “Air Righting Reflex (% successfully righted within 5 s)” value ([5]; animal 5) was 40% and the “Air Righting Reflex, Successful out of 5” value [5, 16] was 2. For the same compound, the “Air Righting Reflex (% successfully righted within 5 s)” value ([5]; animal 6) was 60%, the “Air Righting Reflex, Successful out of 5” value [5, 17] was 3 and the “Air Righting Reflex (% of Rats that successfully righted themselves within 5 s), Average” value [5] was 50.00%.
